PubChem BioAssay (NCI)
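A five-concentration, 48-hour dose response in 96-well plates underlies each endpoint, interpolated linearly between surrounding concentrations. GI50 = concentration required for 50% inhibition of growth. Definition used: TGI = concentration required for complete inhibition of growth.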

Key:
Assay in all cases: NCI-60 cell line screen, 48 h
DMS 114 small cell lung = test system: DMS 114 small cell lung
DMS 273 small cell lung = test system: DMS 273 small cell lung
HT29 colon = test system: HT29 colon
K-562 leukemia = test system: K-562 leukemia
OVCAR-5 ovarian = test system: OVCAR-5 ovarian
RPMI-8226 leukemia = test system: RPMI-8226 leukemia
SW-620 colon = test system: SW-620 colon
UACC-257 melanoma = test system: UACC-257 melanoma
EKVX NSCLC = test system: EKVX NSCLC
T-47D breast = test system: T-47D breast

SMILES | TGI (DMS 114 small cell lung) [µM] | TGI (DMS 273 small cell lung) [µM] | TGI (HT29 colon) [µM] | TGI (K-562 leukemia) [µM] | TGI (OVCAR-5 ovarian) [µM] | TGI (RPMI-8226 leukemia) [µM] | TGI (SW-620 colon) [µM] | TGI (UACC-257 melanoma) [µM] | TGI (EKVX NSCLC) [µM] | GI50 (EKVX NSCLC) [µM] | GI50 (HT29 colon) [µM] | GI50 (K-562 leukemia) [µM] | GI50 (OVCAR-5 ovarian) [µM] | GI50 (RPMI-8226 leukemia) [µM] | GI50 (SW-620 colon) [µM] | GI50 (T-47D breast) [µM] | TGI (T-47D breast) [µM] | GI50 (UACC-257 melanoma) [µM] | GI50 (DMS 114 small cell lung) [µM] | GI50 (DMS 273 small cell lung) [µM]
c1ccc(OCc2nnc3n2N=C(c2ccccc2)CS3)cc1 | > 100 | > 100 | > 100 | > 100 | > 100 | > 100 | > 100 | > 100 |  |  |  |  |  |  |  |  |  |  |  | 
COc1cccc(SSc2cccc(OC)c2C(=O)O)c1C(=O)O | > 100 | > 100 | > 100 | > 100 | > 100 | > 100 | > 100 | > 100 | > 100 |  |  |  |  |  |  |  |  |  |  | 
COc1cc2ccnc3c(=C(SC)SC)c(=O)c(c1OC)c23 | 36 | 30.4 | 26.2 | 16.3 | 35.9 | 15.9 | 31 | 30.8 |  |  |  |  |  |  |  |  |  |  |  | 
Cc1c2c(c(C)c3c1[nH]c1ccccc13)CN(C)CC2 | 28.5 | 34.3 | 36.3 | > 100 | > 100 | 67 | 28.6 | 31.4 |  |  |  |  |  |  |  |  |  |  |  | 
OCCN(CCO)c1cccc(N(CCO)CCO)n1 | > 100 | > 100 |  | > 100 |  | > 100 | > 100 | > 100 | > 100 |  |  |  |  |  |  |  |  |  |  | 
CCC1(CN(C)C)CC/C(=C\c2ccc(OC)c(OC)c2)C1=O (configuration not stated) | > 100 | > 100 | > 100 | > 100 | > 100 | > 69.1 | > 100 | > 100 | > 100 |  |  |  |  |  |  |  |  |  |  | 
Cc1ccc(NC(=O)CCc2n[nH]c(=S)o2)cc1 | > 100 | > 100 | > 100 | > 100 | > 100 |  | > 100 | > 100 | > 100 |  |  |  |  |  |  |  |  |  |  | 
O=C1N(Cc2ccccc2Cl)c2ccccc2C12NN=C(c1cccc(Cl)c1)S2 (configuration not stated) |  |  | 4.3 | 5.39 | 3.76 | 6.04 | 4.33 | 3.27 | 3.08 | 1.69 | 2.02 | 2.21 | 1.88 | 2.36 | 2.02 | 1.62 | 3.1 | 1.7 |  | 
N#Cc1cccc(C=NC23CC4CC(CC(C4)C2)C3)c1 | > 100 | > 100 | > 100 | > 100 | > 100 | > 100 | > 100 | > 100 | > 100 |  |  |  |  |  |  |  |  |  |  | 
COc1cccc(N2C(=O)C3C4C=C5c6ccccc6N(c6ccccc6)C5(C3C2=O)[C@H]2C(=O)N(c3cccc(OC)c3)C(=O)[C@@H]42)c1 (some centres not stated) | > 100 | > 100 | > 100 | > 100 | > 100 | > 100 | > 100 | > 100 | > 100 |  |  |  |  |  |  |  |  |  |  | 
CC([O-])=C1C(=O)c2ccccc2C1=O.CC([O-])=C1C(=O)c2ccccc2C1=O.CC[O-].CC[O-].[Ti+4] | > 100 | > 100 | > 100 | > 100 | > 100 | > 100 | > 100 | > 100 | > 100 | > 100 | > 100 | > 100 | > 100 | > 100 | > 100 |  |  | > 100 | > 100 | > 100
NC(=O)c1sc(-n2cnc3cc(C(F)(F)F)ccc32)cc1OCc1ccccc1Br |  |  | > 25 | > 25 | > 25 | > 25 | > 25 | > 25 | > 25 | > 25 | > 19.5 | 24.7 | > 25 | > 23.6 | > 17.9 | > 21 | > 25 | > 25 |  | 
O=C1CCCCC12CCC/C2=N\O (configuration not stated) | > 100 | > 100 |  | > 100 |  | > 100 | > 100 | > 100 | > 100 |  |  |  |  |  |  |  |  |  |  | 
COc1ccc(-c2c3c(nc4n[nH]c(-c5ccc(Cl)cc5)c24)-c2ccccc2C(=O)C3=O)cc1 |  |  | 3.4 | > 100 | 4.79 | 7.15 | 3.03 | 2.95 | 4.43 | 1.64 | 1.87 | 1.58 | 2.15 | 1.72 | 1.6 | 1.03 | 9.47 | 1.57 |  | 
O=[N+]([O-])c1cc2no[n+]([O-])c2cc1N1CCCCC1 |  |  | 3.86 | 7.98 | 24.8 | 6.64 | > 100 | > 36.1 | 8.98 |  |  |  |  |  |  |  | 5.53 |  |  | 
O=C1OC(=O)C2C3C=CC(C12)C1C2C=CC2C31 (configuration not stated) |  | > 100 | > 100 | > 100 | > 100 |  | > 100 | > 100 | > 100 |  |  |  |  |  |  |  |  |  |  | 
O=C(NCCCl)SCCO | > 100 | > 100 | > 100 | > 100 | > 100 | > 100 | > 100 | > 100 | > 100 |  |  |  |  |  |  |  |  |  |  | 
COc1cc2c(c(OC)c1OC)-c1ccc(N=NC(N)=S)c(=O)cc1[C@@H](NC(C)=O)CC2 |  |  | > 100 | > 100 | > 100 | > 100 | > 100 | > 100 | > 100 | > 100 | 0.388 | 0.425 | 2.26 | 0.708 | 0.421 | 0.361 | > 100 | > 100 |  | 
CC1SC2(CCCCC2)N(NC(=O)c2[nH]c3ccc(Br)cc3c2-c2ccccc2)C1=O (configuration not stated) |  |  | > 100 | > 100 | > 100 | 30.2 | > 100 | > 100 | > 100 | > 100 | 8.1 | 6.78 | 58.7 | 3.83 | > 100 | 20.5 | > 100 | 23.6 |  | 
CN(C)c1cccc(F)c1C(=O)NC(=O)Nc1ccc(Cl)cc1 |  |  | > 23.2 | > 34.4 | > 100 | > 36.6 | > 100 | > 100 | > 100 |  |  |  |  |  |  |  | > 100 |  |  | 
